Some test systems named below: MOLT-4 leukemia; OVCAR-4 ovarian; RXF 393 renal; SNB-75 CNS; SK-OV-3 ovarian; IGROV1 ovarian; EKVX NSCLC; SN12C renal; UO-31 renal; HS 578T breast; A498 renal; OVCAR-5 ovarian; OVCAR-8 ovarian; HCT-15 colon; MALME-3M melanoma; CCRF-CEM leukemia; NCI-H460 lung; SK-MEL-28 melanoma; MDA-MB-231 breast.
What all share (assay): inhibition of tumour cell growth, NCI panel, 48 h

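Compound exposure: 48 hours, 5 concentrations, 96-well plates. TGI: total growth inhibition.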

Turning to `C[n+]1cccc2ccc(OC(=O)c3ccccc3)cc21`, the TGI in the test with MOLT-4 leukemia, in the test with OVCAR-4 ovarian, in the test on RXF 393 renal, in the test on SNB-75 CNS, with SK-OV-3 ovarian and with IGROV1 ovarian was greater than 100 µM in each case. The TGI in the test with EKVX NSCLC, in the test on SN12C renal, in the test on UO-31 renal, with HS 578T breast, with A498 renal and in the test with OVCAR-5 ovarian was greater than 100 µM each time. The TGI in the test on OVCAR-8 ovarian, in the test on HCT-15 colon and with MALME-3M melanoma was greater than 100 µM in each case.

As for `CC(C)(C)[Si](C)(C)OCCOCn1cc(F)c(=O)[nH]c1=O`, the TGI in the test on MOLT-4 leukemia, in the test on OVCAR-4 ovarian, in the test with RXF 393 renal, with CCRF-CEM leukemia, in the test with SNB-75 CNS and with NCI-H460 lung was greater than 100 µM each time. Further, the TGI with SK-OV-3 ovarian, in the test with IGROV1 ovarian, in the test with EKVX NSCLC, in the test with SN12C renal, in the test with UO-31 renal and in the test on HS 578T breast was greater than 100 µM throughout. Moreover, the TGI in the test on A498 renal, with OVCAR-5 ovarian, in the test on OVCAR-8 ovarian, in the test on HCT-15 colon and in the test on MALME-3M melanoma was greater than 100 µM throughout.

For `CC(C)C1COC(c2cccc(C3=N[C@@H](C(C)C)CO3)n2)=N1` (stereo partly specified), the TGI in the test on MOLT-4 leukemia, in the test with OVCAR-4 ovarian, in the test with RXF 393 renal, with CCRF-CEM leukemia, in the test with SNB-75 CNS and in the test on SK-MEL-28 melanoma was greater than 100 µM throughout. Moreover, the TGI in the test with NCI-H460 lung, with SK-OV-3 ovarian, in the test on IGROV1 ovarian, with EKVX NSCLC, in the test with SN12C renal and with UO-31 renal was greater than 100 µM in each case. The TGI in the test with A498 renal, in the test on OVCAR-5 ovarian, in the test with HCT-15 colon and with MALME-3M melanoma was greater than 100 µM in each case.

With `CCOc1ncn(-c2ccc(NC(=S)NC34CC5CC(CC(C5)C3)C4)cc2)n1`, the TGI in the test on MOLT-4 leukemia is greater than 100 µM; in the test with OVCAR-4 ovarian, greater than 100 µM; in the test on CCRF-CEM leukemia, greater than 100 µM; in the test with SNB-75 CNS it was 76.2 µM; with SK-MEL-28 melanoma it was greater than 100 µM; in the test with NCI-H460 lung it was greater than 100 µM. Moreover, the TGI in the test on SK-OV-3 ovarian, in the test with IGROV1 ovarian, in the test with EKVX NSCLC, in the test on SN12C renal, in the test on UO-31 renal and in the test on OVCAR-5 ovarian was greater than 100 µM each time. Besides, the TGI with OVCAR-8 ovarian is 64.3 µM; in the test with HCT-15 colon it was greater than 100 µM; in the test on MDA-MB-231 breast, greater than 100 µM.

As to `C=C=C(Sc1ccccc1)C(C)(C)OC(C)=O`, the TGI was greater than 100 µM in the test with MOLT-4 leukemia; greater than 100 µM in the test with OVCAR-4 ovarian; 28.4 µM in the test on RXF 393 renal; 58.7 µM with CCRF-CEM leukemia; 49.8 µM with SNB-75 CNS; 31.4 µM in the test with SK-MEL-28 melanoma. The TGI came to 46.8 µM in the test on NCI-H460 lung; 51.9 µM with SK-OV-3 ovarian; 33.3 µM in the test with IGROV1 ovarian; 31.1 µM with SN12C renal; 28.6 µM with UO-31 renal; 42.6 µM in the test with A498 renal. Also, the TGI stood at 45.2 µM in the test with OVCAR-5 ovarian, 46.9 µM in the test on OVCAR-8 ovarian, 46.9 µM with HCT-15 colon and 35.3 µM with MALME-3M melanoma.

Consider `Cc1ccc2c(C)c3ccc4ccccc4c3c[n+]2c1`, for which the TGI in the test with MOLT-4 leukemia came to 45.9 µM; with OVCAR-4 ovarian, 45.4 µM; with RXF 393 renal it was 67.4 µM; in the test on CCRF-CEM leukemia it was 46.4 µM; with SNB-75 CNS, 25.9 µM; in the test on SK-MEL-28 melanoma it was 33 µM. Besides, the TGI in the test on NCI-H460 lung was 35.2 µM; with SK-OV-3 ovarian, greater than 87.2 µM; in the test on IGROV1 ovarian it was greater than 100 µM; in the test on EKVX NSCLC, greater than 100 µM; in the test with SN12C renal, 24 µM; in the test on UO-31 renal it was greater than 100 µM. The TGI with A498 renal is greater than 100 µM; in the test on OVCAR-5 ovarian, greater than 100 µM; in the test with OVCAR-8 ovarian, 36.9 µM; in the test with HCT-15 colon it was greater than 100 µM; in the test with MALME-3M melanoma, 9.74 µM.

For the molecule `COc1ccc(-c2cc(=O)c3cc4c(cc3[nH]2)OCO4)cc1`, the TGI with MOLT-4 leukemia, in the test with OVCAR-4 ovarian, with RXF 393 renal, in the test with CCRF-CEM leukemia, with SNB-75 CNS and in the test on SK-MEL-28 melanoma was greater than 100 µM each time. For the same molecule, the TGI is greater than 100 µM in the test on NCI-H460 lung; greater than 100 µM in the test with IGROV1 ovarian; 41.3 µM with EKVX NSCLC; greater than 100 µM with SN12C renal; greater than 100 µM with UO-31 renal; greater than 100 µM in the test with A498 renal. Also, the TGI in the test on OVCAR-8 ovarian, in the test on HCT-15 colon and with MALME-3M melanoma was greater than 100 µM throughout.
